Results as given in US8475814B2 (priority 2003, dated 2013).

Tests used:
[1] = Example 1: percutaneous [3H]-4-hydroxy tamoxifen delivery, radioactivity in breast tissue and blood of breast cancer patients; format: in vivo, human
Procedure: The patients received [^3H]-labeled drug applied directly on the affected breasts at specified intervals ranging from 12 hours to 7 days before surgery to excise diseased tissue. Breast tissue from three regions: the tumor, tissue immediately surrounding the tumor, and normal tissue, was excised and immediately frozen in liquid nitrogen. Additionally, plasma and urine samples were obtained at scheduled intervals and frozen until analysis.

[2] = Example 3: plasma pharmacokinetics of 4-hydroxy tamoxifen gel in healthy premenopausal women; format: in vivo, human; details: for t1/2 (Range): 57 mg/100 g gel, last administration
Procedure: Each participant applied the gel daily for the duration of two menstrual cycles.
At the end of a menstrual cycle, each patient received a single dose, after which serial blood samples were collected at 0, 0.5, 1, 1.5, 2, 3, 4, 6, 12, 18, 24, 36, 48, and 72 hours.
On the first day of the following menstruation, treatment, which consisted of daily application of the gel over two menstrual cycles, began. Blood samples were collected 24 hours following the morning application of gel on days 7, 20 and 25 of the first and second cycles. On the last day of administration, day 25 of the second menstrual cycle, serial blood samples were collected prior to application and at 0.5, 1, 1.5, 2, 3, 4, 6, 12, 18, 24, 36, 48, and 72 hours after application of the gel.

[3] = test system: Ki67 antigen (tumor tissue proliferation index); experiment: Example 4: Ki67 labeling index in breast tumor tissue; format: in vivo, human; details: for mean Ki-67 LI scores after treatment compared to the untreated group: adjusted for baseline, P=0.0054
Excerpt: Participants in the study were postmenopausal women diagnosed with estrogen receptor positive invasive breast cancer, as determined by Trucut biopsy. Criteria for enrollment included age >50 years, histologically confirmed T1 or T2 estrogen receptor positive primary breast cancer, and fit for surgery within 1 month of the biopsy. Patients with inflammatory cancer, known metastasis or lymph node involvement were excluded as were patients with previous radiotherapy or chemotherapy and ongoing hormone replacement therapy (a minimum washout period of 8 days was observed before the Tru-cut biopsy). Other exclusion criteria were a history of thrombophlebitis requiring anticoagulant treatment, retinopathy, cutaneous allergy to alcohol or mammary dermatitis contraindicating the application of a gel.
Patients were scheduled for tumor resection surgery with curative intent between day 15 and day 22 after the start of treatment. On the day prior to surgery, a blood sample was also obtained for determination of 4-OHT concentrations. […]
Ki67 and Proliferating Cell Nuclear Antigen (PCNA) labeling indices (LI) were assessed on paraffin embedded sections of the pre- and post-treatment tissue specimens. The Ki67 antigen was assessed using the monoclonal antibody MIB 1 (DAKO, Denmark) as used in routine conditions in pathology. […] Six serial sections were analyzed per case in order to standardize sampling. […] For each preparation, optical density (OD) thresholds were determined using real microscopic images of the analyzed field as reference. […] Twenty fields were analyzed for each section. Stained nuclear surface was determined (segmentation and thresholding) and a LI scored (stained cells/counterstained elements). […] Control of immunostaining quantitative analysis and reproducibility of the procedure were performed: —by comparison to iterative measurements done on the same preparations, —by comparison to measurements compiled on six sequential sections of the same specimen. […] Results were expressed as LI.

[4] = Example 4: 4-OHT assay in plasma, tumor tissue and normal tissue (GC-MS NICI); format: in vivo, human; details: 2-3 weeks
Excerpt: Patients were scheduled for tumor resection surgery with curative intent between day 15 and day 22 after the start of treatment. On the day prior to surgery, a blood sample was also obtained for determination of 4-OHT concentrations. On the day of surgery, patients were reassessed for concomitant therapy, concomitant conditions, hematology, biochemistry, plasma 4-OHT, estrone (E1), and estradiol (E2) concentrations.
Concentrations of 4-OHT in plasma, tumor tissue, and normal tissue were performed using Gas Chromatography (GC) combined with Mass Spectrometry (MS) used in the Negative Ion Chemical Ionization-mode (NICI) (Girault, 1993). The quantification limits of the method were 5 pg/ml for the plasma and 50 pg/g for tissue samples respectively. Tumor extracts and normal breast tissue obtained at the time of surgery (after treatment) were stored in liquid nitrogen until subsequent assay of 4-OHT.

estrone sulphatase = target: T1, estrone sulphatase (Homo sapiens, UniProt P08842); details: mammary cancer cell lines; cited from earlier work
T1 construct: estrone sulphatase activity in mammary cancer cell lines
T1 sequence (P08842 22-583): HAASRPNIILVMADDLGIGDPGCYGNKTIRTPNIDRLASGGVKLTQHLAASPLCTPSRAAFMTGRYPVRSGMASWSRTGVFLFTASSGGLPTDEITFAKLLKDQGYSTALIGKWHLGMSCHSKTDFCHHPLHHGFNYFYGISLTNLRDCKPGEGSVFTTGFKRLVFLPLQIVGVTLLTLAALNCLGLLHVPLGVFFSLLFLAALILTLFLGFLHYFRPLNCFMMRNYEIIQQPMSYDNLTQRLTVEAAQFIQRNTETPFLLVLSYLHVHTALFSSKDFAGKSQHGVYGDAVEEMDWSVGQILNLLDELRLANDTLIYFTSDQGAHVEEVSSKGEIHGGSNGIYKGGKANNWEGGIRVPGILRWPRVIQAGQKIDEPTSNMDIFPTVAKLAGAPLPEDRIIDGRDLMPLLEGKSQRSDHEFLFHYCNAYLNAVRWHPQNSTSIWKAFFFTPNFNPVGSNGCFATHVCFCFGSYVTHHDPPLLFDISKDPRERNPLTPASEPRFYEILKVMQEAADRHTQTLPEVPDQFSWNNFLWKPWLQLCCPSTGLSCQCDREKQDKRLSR

estrogen receptors = details: in vitro; cited from earlier work
[5] = test system: p53(−) normal human mammary epithelial cells; details: cited from earlier work
[6] = cited from earlier work
[7] = 12 hr after percutaneous Z-[3H]-4-hydroxy tamoxifen
[8] = 24 hours after percutaneous [3H]-4-hydroxy tamoxifen
[9] = 24 hr after percutaneous Z-[3H]-4-hydroxy tamoxifen
[10] = 36 hr after percutaneous Z-[3H]-4-hydroxy tamoxifen
[11] = Day 4 after percutaneous Z-[3H]-4-hydroxy tamoxifen
[12] = Day 7 after percutaneous Z-[3H]-4-hydroxy tamoxifen

Row | Structure (SMILES) | mean Ki-67 LI scores after treatment compared to the untreated group [3] | effect on estrone sulphatase activity (estrone sulphatase) | % Metabolites in Breast Tissue ([1]; human, in vivo) | % Metabolites in Breast Tissue [1, 7] | % of radioactivity in blood [1, 8] | % Metabolites in Breast Tissue [1, 9] | % Metabolites in Breast Tissue [1, 10] | % Metabolites in Breast Tissue [1, 11] | % Metabolites in Breast Tissue [1, 12] | other results
1 | CCC(=C(c1ccc(O)cc1)c1ccc(OCCN(C)C)cc1)c1ccccc1 [4-hydroxy tamoxifen, 1-[4-(2-N-dimethylaminoethoxy)phenyl]-1-(4-hydroxyphenyl)-2-phenylbut-1-ene] | significantly lower | significant inhibitory effect |  |  |  |  |  |  |  | % of radioactivity in blood ([1]; human, in vivo): 68%; radioactivity administered that showed in the blood ([1]; human, in vivo): 0.5%; retention in the breast ([1]; human, in vivo): approximately 4 days; time of plateau of radioactivity in blood ([1]; human, in vivo): 4 to 6 days; t1/2 (Range) ([2]; 1 mg/day): (58-118) hr; t1/2 (Range) ([2]; 2 mg/day): (49-101) hr; plasma concentrations after the last gel application ([2]; 72 hours after the last gel application): remained detectable; plasma concentrations of 4-hydroxy tamoxifen after a single dose ([2]; single 0.5 mg dose): did not produce detectable plasma concentrations; patients with detectable plasma concentrations (>5 pg/mL) ([2]; single dose of 1 mg): 6 of 12; plasma concentrations of 4-hydroxy tamoxifen versus typical estradiol concentrations ([2]; topical application, 0.5-2 mg/day): < 0.08 ng/mL; dose dependence of mean Ki-67 LI score after treatment ([3]; 0.5, 1.0, 2.0 mg/d): dose-dependent; 4-OHT concentration in Tumor, Median (min:max) ([4]; gel 0.5 mg/d): 687 pg/g; 4-OHT concentration in Tumor, Median (min:max) ([4]; gel 1.0 mg/d): 1377 pg/g; 4-OHT concentration in Tumor, Median (min:max) ([4]; gel 2.0 mg/d): 1698 pg/g; potency as measured by binding affinity to estrogen receptors, compared with tamoxifen (estrogen receptors): more potency than tamoxifen
2 | CC/C(=C(\c1ccc(O)cc1)c1ccc(OCCN(C)C)cc1)c1ccccc1 [Z-4-hydroxy tamoxifen] |  |  | 32% |  |  |  |  |  |  | 
3 | CCC(=C(c1ccc(O)cc1)c1ccc(OCCNC)cc1)c1ccccc1 [N-Desmethyl-4-Hydroxy Tamoxifen] |  |  |  | 2% | 18% | 4% | 14% | 20% | 16% | 
4 | CCC(=C(c1ccc(O)cc1)c1ccc(OCCN(C)C)cc1)c1ccccc1 (single isomer, unassigned) [E isomer] |  |  | 33% |  |  |  |  |  |  | 
5 | CCC(=C(c1ccc(O)cc1)c1ccc(O)cc1)c1ccccc1 [Bisphenol] |  |  |  | 1% | 11% | 2% | 3% | 8% | 8% | 
6 | CC/C(=C(\c1ccccc1)c1ccc(OCCN(C)C)cc1)c1ccccc1 [tamoxifen, reference compound] | significantly lower | little or no effect |  |  |  |  |  | <1% | 2% | time of plateau of radioactivity in blood ([1]; percutaneous application): 2 days; retention in the breast ([1]; percutaneous application to the affected breast): shorter and far weaker; initiation of apoptosis [5]: initiates apoptosis; rat liver carcinogenicity [6]: potent rat liver carcinogen
